The target in this assay is BMAL1 (Homo sapiens, UniProt O00327). More on the design: PASB domain (residues 338–449); Protein thermal shift (PTS) fragment screen on recombinant human BMAL1(PASB), shift of melting temperature. The note with it: dTmB; binder.

Structures are written as SMILES.

Sequence of BMAL1 (O00327 338-449): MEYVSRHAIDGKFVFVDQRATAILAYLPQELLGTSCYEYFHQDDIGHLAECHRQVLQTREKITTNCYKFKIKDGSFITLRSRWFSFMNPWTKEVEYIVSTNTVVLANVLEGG

Consider `O=c1[nH]c2ccccc2n1C1CCNCC1` [Prestw-Frag-1587, Compound 407], for which the “Bmal1(PASB) dTmB” value was -0.86 °C.
Take `OCCOc1cccc2[nH]ccc12` [Prestw-Frag-1595, Compound 110]: the “Bmal1(PASB) dTmB” value was -0.17 °C.
The result for `NCCc1c[nH]c2ccc(O)cc12` [Prestw-Frag-1643, Compound 78] reads -0.60 °C; that for `Oc1ccc2[nH]ccc2c1` [Prestw-Frag-1645, Compound 308], 0.24 °C; that for `Cc1cc(N)no1` [Prestw-Frag-1647, Compound 292], -0.16 °C.
The result for `Nc1ccnn1-c1ccccc1` [Prestw-Frag-1648, Compound 208] reads -0.34 °C; that for `OC(c1ccccc1)(c1ccccc1)C1CCNCC1` [Prestw-Frag-1654, Compound 403], -1.27 °C; that for `NC(=O)CN1C(=O)c2ccccc2C1=O` [Prestw-Frag-1661, Compound 297], -0.12 °C.
The result for `Cc1ccc(S(=O)(=O)NC(N)=O)cc1` [Prestw-Frag-1667, Compound 248] reads 0.07 °C; that for `O=c1[nH]nc2ccccn12` [Prestw-Frag-1673, Compound 287], -1.05 °C; that for `O=C(O)C(CO)c1ccccc1` (centres unmarked) [Prestw-Frag-1686, Compound 284], -1.23 °C.
As for `CC(N)COc1ccccc1` (centres unmarked) [Prestw-Frag-1691, Compound 270], the “Bmal1(PASB) dTmB” value was found to be 0.11 °C.
On to `c1cc2c(s1)CCNC2` [Prestw-Frag-1694, Compound 112], for which the “Bmal1(PASB) dTmB” value is -0.53 °C.
Take `Clc1cccc(CN2CCNCC2)c1` [Prestw-Frag-1700, Compound 62]: the “Bmal1(PASB) dTmB” value was -0.92 °C.
The result for `Clc1ccc(-c2cncnc2)cc1` [Prestw-Frag-1704, Compound 385] reads -1.51 °C; that for `CCCC(=O)Nc1ccc(O)c(C(C)=O)c1` [Prestw-Frag-1716, Compound 95], -1.04 °C.
Next, `CCCC(=O)Nc1cccc(C(C)=O)c1` [Prestw-Frag-1717, Compound 428]: -0.30 °C.
Regarding `c1ccc2c(c1)CNc1ccccc1C2` [Prestw-Frag-1722, Compound 6], the “Bmal1(PASB) dTmB” value is -1.75 °C.
Next, `COc1cc(C(N)=O)cc(OC)c1OC` [Prestw-Frag-1731, Compound 341]: -0.33 °C; `CCN(CC)CCOC(=O)c1ccccc1` [Prestw-Frag-1735, Compound 406]: -0.48 °C; `O=C1CCOc2ccccc21` [Prestw-Frag-1740, Compound 360]: -0.05 °C.
The result for `Clc1ccc(C(c2ccccc2)N2CCNCC2)cc1` (centres unmarked) [Prestw-Frag-1741, Compound 476] reads -4.68 °C; that for `O=C(NCc1cccnc1)c1ccc(O)cc1` [Prestw-Frag-1747, Compound 457], -0.46 °C; that for `CC(=O)Nc1ncc([N+](=O)[O-])s1` [Prestw-Frag-1750, Compound 291], 0.07 °C.
Consider `O=C(O)CCCc1ccc(-c2ccccc2)cc1` [Prestw-Frag-1767, Compound 455], for which the “Bmal1(PASB) dTmB” value is -2.43 °C.
Take `O=C(O)CCC(=O)c1ccccc1` [Prestw-Frag-1768, Compound 87]: the “Bmal1(PASB) dTmB” value is -0.11 °C.
The result for `CNCCC(c1ccccc1)c1ccccc1` [Prestw-Frag-1772, Compound 410] reads -1.48 °C; that for `COc1ccc(Cl)cc1C(N)=O` [Prestw-Frag-1775, Compound 316], -0.78 °C.
With `CC(=O)Nc1ccccn1` [Prestw-Frag-1782, Compound 170], the “Bmal1(PASB) dTmB” value was -0.28 °C.
The result for `Cc1cccc(O)c1` [Prestw-Frag-1791, Compound 216] reads -0.80 °C.
Next, `Cc1c(N)c(=O)n(-c2ccccc2)n1C` [Prestw-Frag-1807, Compound 18]: -0.46 °C.
Next, `COc1ccc(OCC(N)=O)cc1` [Prestw-Frag-1812, Compound 300]: 0.07 °C; `c1ccc(C(c2ccccc2)N2CCCNCC2)cc1` [Prestw-Frag-1817, Compound 445]: -1.89 °C; `NNCCc1ccccc1` [Prestw-Frag-1818, Compound 31]: -1.46 °C.
Turning to `Cc1[nH]c2ccccc2c1CC(=O)O` [Prestw-Frag-1824, Compound 477], the “Bmal1(PASB) dTmB” value is -6.48 °C.
The result for `O=C(COc1ccc(Cl)cc1)N1CCNCC1` [Prestw-Frag-1832, Compound 244] reads -1.08 °C; that for `Cc1ccccc1NC(=O)C(C)N` (centres unmarked) [Prestw-Frag-1856, Compound 389], 0.12 °C; that for `CC(C(=O)O)c1ccccc1` (centres unmarked) [Prestw-Frag-1859, Compound 194], -0.02 °C.
Next, `O=C(c1ccccc1)c1ccccc1` [Prestw-Frag-1860, Compound 423]: -0.99 °C; `CS(=O)(=O)Nc1ccccc1Oc1ccccc1` [Prestw-Frag-1861, Compound 432]: -1.83 °C.
Regarding `COC(=O)C(O)(c1ccccc1)C1CCCCC1` (centres unmarked) [Prestw-Frag-1867, Compound 446], the “Bmal1(PASB) dTmB” value was -1.54 °C.
As to `c1ccc(CC2CCNCC2)cc1` [Prestw-Frag-1868, Compound 296], the “Bmal1(PASB) dTmB” value is -0.76 °C.
Next, `O=C1NCN(c2ccccc2)C12CCNCC2` [Prestw-Frag-1869, Compound 339]: -0.72 °C.
On to `Nc1ccnc2ccccc12` [Prestw-Frag-1878, Compound 323], for which the “Bmal1(PASB) dTmB” value was -0.67 °C.
Next, `CC(=O)c1ccccc1O` [Prestw-Frag-1884, Compound 211]: -0.17 °C; `COc1ccc(CNCCN(C)C)cc1` [Prestw-Frag-1887, Compound 172]: -0.14 °C.
Regarding `CN(C)Cc1ccc(CSCCN)o1` [Prestw-Frag-1889, Compound 8], the “Bmal1(PASB) dTmB” value is -2.44 °C.
`Cc1ccc(S(N)(=O)=O)cc1` [Prestw-Frag-1894, Compound 198]: the “Bmal1(PASB) dTmB” value is -0.38 °C.
The result for `NS(=O)(=O)c1ccccc1` [Prestw-Frag-1895, Compound 148] reads -0.29 °C.
Consider `COc1ccc2nc(N)sc2c1` [Prestw-Frag-1898, Compound 305], for which the “Bmal1(PASB) dTmB” value is 1.10 °C.
In the case of `O=C1Nc2ccccc2Nc2ccccc21` [Prestw-Frag-1904, Compound 439], the “Bmal1(PASB) dTmB” value came out at 0.05 °C.
`CCCOc1ccccc1C(=N)N` [Prestw-Frag-1910, Compound 398]: the “Bmal1(PASB) dTmB” value is -0.43 °C.
Next, `Cc1ccccc1-c1ccccc1CO` [Prestw-Frag-1923, Compound 451]: -1.24 °C; `OC(c1ccc(F)cc1)c1ccc(F)cc1` [Prestw-Frag-1924, Compound 461]: -1.89 °C.
With `NCCOC(c1ccc(F)cc1)c1ccc(F)cc1` [Prestw-Frag-1925, Compound 448], the “Bmal1(PASB) dTmB” value is -1.45 °C.
Next, `CC(C)(C)NCC(O)c1ccccc1` (centres unmarked) [Prestw-Frag-1929, Compound 213]: -0.34 °C.
Regarding `OCc1cc(O)cc(O)c1` [Prestw-Frag-1935, Compound 76], the “Bmal1(PASB) dTmB” value is -0.85 °C.
The result for `CC(N)C(=O)c1ccccc1` (centres unmarked) [Prestw-Frag-1941, Compound 223] reads -0.18 °C; that for `OCCCN1CCN(c2ccccc2)CC1` [Prestw-Frag-1944, Compound 178], -0.31 °C; that for `OCCN1CCN(c2ccccc2)CC1` [Prestw-Frag-1945, Compound 144], -0.42 °C.
Take `O=C(CCN1CCCCC1)c1ccccc1` [Prestw-Frag-1953, Compound 479]: the “Bmal1(PASB) dTmB” value was -3.22 °C.
The result for `O=C(Cc1ccccc1)NO` [Prestw-Frag-1961, Compound 252] reads -0.30 °C.
As for `O=C(O)c1ccc(Oc2ccccc2)cc1` [Prestw-Frag-1968, Compound 155], the “Bmal1(PASB) dTmB” value was -0.89 °C.
Next, `NC(=O)Cc1ccccn1` [Prestw-Frag-1971, Compound 173]: -0.17 °C; `NS(=O)(=O)c1ccc(Cl)cc1` [Prestw-Frag-1977, Compound 122]: -0.58 °C.
As to `CCN(CC)CCNc1ccccc1` [Prestw-Frag-1993, Compound 214], the “Bmal1(PASB) dTmB” value was -0.30 °C.
The result for `Cc1cccc(C)c1NC(=O)CN1CCNCC1` [Prestw-Frag-1996, Compound 391] reads -0.66 °C; that for `NCCc1cnc[nH]1` [Prestw-Frag-1999, Compound 330], -0.23 °C; that for `Cc1c[nH]c(=O)[nH]c1=O` [Prestw-Frag-2017, Compound 255], -0.13 °C.
`CNC(=O)c1ccc(Cl)cc1` [Prestw-Frag-2018, Compound 319]: the “Bmal1(PASB) dTmB” value is -0.45 °C.
Next, `Cc1noc(N)c1C` [Prestw-Frag-2021, Compound 114]: -0.18 °C; `CNS(=O)(=O)c1ccccc1` [Prestw-Frag-2023, Compound 256]: -0.20 °C; `CN(C)CCNC(=O)c1ccc(N)cc1` [Prestw-Frag-2031, Compound 430]: -0.84 °C.
For `CC(=O)N1CCN(c2ccc(O)cc2)CC1` [Prestw-Frag-2047, Compound 27], the “Bmal1(PASB) dTmB” value is -2.09 °C.
Take `O=C(O)C1(c2ccccc2)CCCC1` [Prestw-Frag-2049, Compound 104]: the “Bmal1(PASB) dTmB” value is -0.56 °C.
Next, `NS(=O)(=O)c1cc(C(=O)O)ccc1Cl` [Prestw-Frag-2051, Compound 160]: 0.10 °C; `O=C(O)c1ccccc1NCc1ccco1` [Prestw-Frag-2052, Compound 70]: -0.26 °C.

Values taken from article PMC12037410, “Pharmacological targeting of BMAL1 modulates circadian and immune pathways” (Nature Chemical Biology, 2025).
